Measured values as given in publication PMC7365463, “Oxfendazole mediates macrofilaricidal efficacy against the filarial nematode Litomosoides sigmodontis in vivo and inhibits Onchocerca spec. motility in vitro” (PLoS Neglected Tropical Diseases, 2020).
Like-named read-outs stand apart in the source and are kept apart here.

Key:
[1] = tested on: Onchocerca gutturosa adult male worms; test: O. gutturosa adult male worm 5-day motility assay; details: for activity against adult O. gutturosa: metabolites of oxfendazole, less potent compared to oxfendazole
[2] = tested on: Onchocerca gutturosa adult male worms; test: O. gutturosa adult worm MTT/formazan viability assay; details: 120 h
[3] = tested on: Onchocerca lienalis microfilariae; test: O. lienalis microfilariae 5-day motility assay; details: 120 h
Brugia pahangi [4] = details: jirds, cited from earlier work
Brugia pahangi [5] = details: L3, cats, patent phase, necropsy 42 days p.t., ref Denham 1980 (Ref. 5), cited from earlier work
Brugia pahangi [6] = tested on: Brugia pahangi; parameters: method as in Devaney 1985 (Ref. 8); details: 50L3, balb/c, SC 10 or 50 mg/kg 5 cons. days, 4 days p.i., necropsy 3-4 weeks p.t.; ref Devaney 1985 (Ref. 8); cited from earlier work
Litomosoides sigmodontis [7] = tested on: Litomosoides sigmodontis; parameters: method as in Reddy 1983 (Ref. 15); details: L3 (mite), Mastomys natalensis, patent phase, necropsy 43 days p.t., ref Reddy 1983 (Ref. 15), cited from earlier work
Brugia pahangi [8] = tested on: Brugia pahangi; parameters: method as in Reddy 1983 (Ref. 15); details: L3 (SC), Mastomys natalensis, patent phase, necropsy 43 days p.t., ref Reddy 1983 (Ref. 15), cited from earlier work
Breinlia booliati = tested on: Breinlia booliati; parameters: method as in Mak 1981 (Ref. 7); details: 100L3 (SC), rats, SC 10mg/kg 5 cons. days, patent phase, necropsy 4 weeks p.t.; ref Mak 1981 (Ref. 7); cited from earlier work
Litomosoides sigmodontis [9] = tested on: Litomosoides sigmodontis; parameters: method as in Shibuya 1979 (Ref. 12); details: cotton rat, ref Shibuya 1979 (Ref. 12), cited from earlier work
[10] = tested on: L. sigmodontis microfilariae; test: L. sigmodontis microfilariae-injected naïve mice; type: in vivo, Litomosoides sigmodontis; details: single intraperitoneal injection 5 mg/kg
Protocol: To investigate the in vivo efficacy of oxfendazole on microfilariae, microfilariae were isolated from peripheral blood of L. sigmodontis-infected cotton rats according to Chandrashekar et al. (1984) using a sucrose percoll gradient. 100,000 microfilariae were injected into the tail vein of naïve mice as previously described. Microfilariae-injected mice were treated with a commercial formulation of oxfendazole (Dolthene) twice daily with 2 x 12.5 mg/kg per os. As a positive control, additional mice were treated with a single intraperitoneal dose of ivermectin (5 mg/kg) in DMSO/PEG400/H20dest with a ratio of 1:7:2 according to Halliday et al.. Control animals received no treatment.

Cl.Cl.NCCS[As](SCCN)c1ccc(Nc2nc(N)nc(N)n2)cc1 [Immiticide, melarsomine dihydrochloride]
Motility Reduction (%) ([1]; 1.25 x 10^-5 M, 48 h): 100%
Motility Reduction (%) ([1]; 1.25 x 10^-5 M, 72 h): 100%
Motility Reduction (%) ([1]; 1.25 x 10^-5 M, 96 h): 100%
Motility Reduction (%) ([1]; 1.25 x 10^-5 M, 120 h): 100%
Motility Reduction (%) ([1]; 1.9 x 10^-7 M, 24 h): 4%
Motility Reduction (%) ([1]; 1.9 x 10^-7 M, 48 h): 9%
Motility Reduction (%) ([1]; 1.9 x 10^-7 M, 72 h): 33%
Motility Reduction (%) ([1]; 1.9 x 10^-7 M, 96 h): 44%
Motility Reduction (%) ([1]; 1.9 x 10^-7 M, 120 h): 44%
Motility Reduction (%) ([1]; 3.1 x 10^-6 M, 48 h): 100%
Motility Reduction (%) ([1]; 3.1 x 10^-6 M, 72 h): 100%
Motility Reduction (%) ([1]; 3.1 x 10^-6 M, 96 h): 100%
Motility Reduction (%) ([1]; 3.1 x 10^-6 M, 120 h): 100%
Motility Reduction (%) ([1]; 7.8 x 10^-7 M, 24 h): 49%
Motility Reduction (%) ([1]; 7.8 x 10^-7 M, 48 h): 74%
Motility Reduction (%) ([1]; 7.8 x 10^-7 M, 72 h): 93%
Motility Reduction (%) ([1]; 7.8 x 10^-7 M, 120 h): 100%
MTT Reduction (%) ([2]; 1.25 x 10^-5 M): 91%
MTT Reduction (%) ([2]; 1.9 x 10^-7 M): 51%
MTT Reduction (%) ([2]; 3.1 x 10^-6 M): 94%
MTT Reduction (%) ([2]; 7.8 x 10^-7 M): 79%
effect on microfilariae motility ([3]; concentrations equal or above 3.1·10^−6 M): completely inhibited microfilariae motility

CCCSc1ccc2nc(NC(=O)OC)[nH]c2c1 [albendazole]
Motility Reduction (%) ([1]; 1.25 x 10^-5 M, 24 h): 10%
Motility Reduction (%) ([1]; 1.25 x 10^-5 M, 48 h): 12%
Motility Reduction (%) ([1]; 1.25 x 10^-5 M, 72 h): 27%
Motility Reduction (%) ([1]; 1.25 x 10^-5 M, 96 h): 38%
Motility Reduction (%) ([1]; 1.25 x 10^-5 M, 120 h): 40%
Motility Reduction (%) ([1]; 3.1 x 10^-6 M, 24 h): 10%
Motility Reduction (%) ([1]; 3.1 x 10^-6 M, 48 h): 5%
Motility Reduction (%) ([1]; 3.1 x 10^-6 M, 72 h): 16%
Motility Reduction (%) ([1]; 3.1 x 10^-6 M, 96 h): 26%
Motility Reduction (%) ([1]; 3.1 x 10^-6 M, 120 h): 40%
Motility Reduction (%) ([1]; 5.0 x 10^-5 M, 24 h): 10%
Motility Reduction (%) ([1]; 5.0 x 10^-5 M, 48 h): 12%
Motility Reduction (%) ([1]; 5.0 x 10^-5 M, 72 h): 29%
Motility Reduction (%) ([1]; 5.0 x 10^-5 M, 96 h): 40%
Motility Reduction (%) ([1]; 5.0 x 10^-5 M, 120 h): 47%
Motility Reduction (%) ([1]; 7.8 x 10^-7 M, 24 h): 10%
Motility Reduction (%) ([1]; 7.8 x 10^-7 M, 48 h): 9%
Motility Reduction (%) ([1]; 7.8 x 10^-7 M, 72 h): 13%
Motility Reduction (%) ([1]; 7.8 x 10^-7 M, 96 h): 33%
Motility Reduction (%) ([1]; 7.8 x 10^-7 M, 120 h): 33%
MTT Reduction (%) ([2]; 1.25 x 10^-5 M): 28%
MTT Reduction (%) ([2]; 3.1 x 10^-6 M): 19%
MTT Reduction (%) ([2]; 5.0 x 10^-5 M): 47%
MTT Reduction (%) ([2]; 7.8 x 10^-7 M): 18%
activity against microfilariae compared to oxfendazole [3]: even less active
Reduction of worm burden (Brugia pahangi [4]; 15Ad (IP), SC 50mg/kg 5 cons. days, necropsy 4-5 weeks p.t., ref Denham 1980 (Ref. 5)): 100%
Reduction of worm burden (Brugia pahangi [4]; 15Ad (IP), SC 25-12.5mg/kg 5 cons. days, necropsy 4-5 weeks p.t., ref Denham 1980 (Ref. 5)): 80-90%
Reduction of worm burden (Brugia pahangi [4]; 15Ad (IP), SC 50-25mg/kg 5 cons. days, 4 days p.i., necropsy 5 weeks p.t., ref Surin 1990 (Ref. 11)): 100%
Reduction of worm burden (Brugia pahangi [4]; 15Ad (IP), SC <6,25mg/kg 5 cons. days, necropsy 4-5 weeks p.t., ref Denham 1980 (Ref. 5)): <30%
Reduction of worm burden (Brugia pahangi [4]; 50L3 (IP), SC 50-25mg/kg 5 cons. days, 70 days p.i., necropsy 5 weeks p.t., ref Surin 1990 (Ref. 11)): 90%
Reduction of worm burden (Brugia pahangi [5]; SC 25mg/kg 5 cons. days): 50%
Reduction of worm burden (Brugia pahangi [5]; SC 50mg/kg 5 cons. days): 100%
Reduction of worm burden (Brugia pahangi [5]; SC 100mg/kg 5 cons. days): 100%
Reduction of worm burden (Brugia pahangi [6]): 100%
Reduction of worm burden (Litomosoides sigmodontis [7]; SC 100mg/kg 5 cons. days): 100%
Reduction of worm burden (Litomosoides sigmodontis [7]; per os 150mg/kg 5 cons. days): 0%
Reduction of worm burden (Brugia pahangi [8]; SC 100mg/kg 5 cons. days): 100%
Reduction of worm burden (Brugia pahangi [8]; per os 150mg/kg 5 cons. days): 50%

COC(=O)Nc1nc2ccc(S(=O)(=O)c3ccccc3)cc2[nH]1 [fenbendazole sulfone]
activity against adult O. gutturosa [1]: active

COC(=O)Nc1nc2ccc(Sc3ccccc3)cc2[nH]1 [fenbendazole]
activity against adult O. gutturosa [1]: active

COC(=O)Nc1nc2ccc(C(=O)c3ccccc3)cc2[nH]1 [meb, mebendazole]
Reduction of worm burden (Brugia pahangi [4]; 15Ad (IP), SC 25-12,5mg/kg 5 cons. days, 4 days p.i., necropsy 5 weeks p.t., ref Surin 1990 (Ref. 11)): 100%
Reduction of worm burden (Brugia pahangi [4]; 50L3 (IP), SC 25mg/kg 5 cons. days, 70 days p.i., necropsy 5 weeks p.t., ref Surin 1990 (Ref. 11)): 97%
Reduction of worm burden (Brugia pahangi [4]; 50L3 (IP), SC 12,5mg/kg 5 cons. days, 70 days p.i., necropsy 5 weeks p.t., ref Surin 1990 (Ref. 11)): 78.5%
Reduction of worm burden (Brugia pahangi [4]; 100L3 (IP), SC 50mg/kg 5 cons.days, 3 months p.i., necropsy 15 days p.t., ref Denham 1978 (Ref. 3)): 70%
Reduction of worm burden (Brugia pahangi [4]; 100L3 (IP), SC 50mg/kg 5 cons.days, 3 months p.i., necropsy 20 days p.t., ref Denham 1978 (Ref. 3)): 100%
Reduction of worm burden (Brugia pahangi [4]; 100L3 (IP), SC 50mg/kg 5 cons.days, 3 months p.i., necropsy 30 days p.t., ref Denham 1978 (Ref. 3)): 100%
Reduction of worm burden (Breinlia booliati): 83%
Reduction of worm burden (Litomosoides sigmodontis [9]; IP 1mg/kg 3 cons.days, patent phase, necropsy 4 weeks p.t.): 50%
Reduction of worm burden (Litomosoides sigmodontis [9]; IP 10mg/kg 3 cons.days, patent phase, necropsy 4 weeks p.t.): 100%
Reduction of worm burden (Litomosoides sigmodontis [9]; IP 100mg/kg x1, patent phase, necropsy 4 weeks p.t.): 100%
Reduction of worm burden (Litomosoides sigmodontis [9]; IT 0.1mg/kg 3 cons.days, patent phase, necropsy 5 weeks p.t.): 0%
Reduction of worm burden (Litomosoides sigmodontis [9]; IT 1mg/kg 3 cons.days, patent phase, necropsy 5 weeks p.t.): 100%
Reduction of worm burden (Litomosoides sigmodontis [9]; IT 10mg/kg 3 cons.days, patent phase, necropsy 3 weeks p.t.): 20%
Reduction of worm burden (Litomosoides sigmodontis [9]; IT 10mg/kg 3 cons.days, patent phase, necropsy 5 weeks p.t.): 100%
Reduction of worm burden (Litomosoides sigmodontis [9]; IT 10mg/kg 4 cons.days, patent phase, necropsy 4 weeks p.t.): 0%
Reduction of worm burden (Litomosoides sigmodontis [9]; IT 25mg/kg x1, patent phase, necropsy 5 weeks p.t.): 75%
Reduction of worm burden (Litomosoides sigmodontis [9]; IT 100mg/kg x1, patent phase, necropsy 5 weeks p.t.): 85%
Reduction of worm burden (Litomosoides sigmodontis [7]; SC 100mg/kg 5 cons. days): 100%
Reduction of worm burden (Litomosoides sigmodontis [7]; per os 150mg/kg 5 cons. days): 70%
Reduction of worm burden (Brugia pahangi [8]; SC 100mg/kg 5 cons. days): 100%
Reduction of worm burden (Brugia pahangi [8]; per os 150mg/kg 5 cons. days): 0%

ivermectin
microfilaremia ([10]; by 6 h after treatment): statistically significant reduction of microfilaremia
microfilaremia ([10]; from day four after treatment until end of experiment): microfilariae negative
